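Interpolation was linear, between the two tested concentrations surrounding the appropriate level; five concentrations were tested over 48 hours in 96-well plates. GI50 is the concentration that inhibits growth by half.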 The source made the active and inactive calls. Cut-off read from the data, not from the text of the source: active = GI50 up to about 1.1 µM and inactive = higher. Square brackets hold non-standard residues; d marks the D form. Peptide text beside a SMILES is read from it. Ac5c = NC1(C(=O)O)CCCC1
What was measured:
Experiment in all cases: DTP human tumour cell line panel, 48 h
[1] = system: T47D
[2] = system: MDA-N
[3] = system: NCI/ADR-RES
[4] = system: BT-549
[5] = system: MCF7
[6] = system: MDA-MB-435

Compound	GI50 [1]	GI50 [2]	GI50 [3]	GI50 [4]	GI50 [5]	GI50 [6]
CC(C)(C)CC(C)(C)c1cc(O)c(O)c(CN2CCCCC2)c1	11.6 µM (inactive)	15.1 µM (inactive)	5.09 µM (inactive)	15.1 µM (inactive)	12.5 µM (inactive)	16.9 µM (inactive)
O=C(Cn1c(=O)oc2ccc(C(=O)c3ccc(F)cc3)cc21)c1ccc([N+](=O)[O-])cc1	24.7 µM (inactive)	21 µM (inactive)	33.8 µM (inactive)	–	31.7 µM (inactive)	19.3 µM (inactive)
COc1cc2c(c(OC)c1)/C(=C/Sc1ccccc1)C(=O)N(C(C)(C)C)C2	26.7 µM (inactive)	23.5 µM (inactive)	11.7 µM (inactive)	26 µM (inactive)	29.8 µM (inactive)	22.2 µM (inactive)
O=C1Oc2cc(O)cc(/C=C/c3ccc(O)cc3)c2[C@@]12c1c(O)cc(O)cc1OC2c1cccc(O)c1 (some centres not stated)	44.8 µM (inactive)	26.1 µM (inactive)	67.1 µM (inactive)	49.8 µM (inactive)	39.1 µM (inactive)	21.4 µM (inactive)
O=C1NC(Cc2ccc(O)cc2)C(=O)NC1Cc1ccc(O)cc1 (configuration not stated)	–	30.1 µM (inactive)	> 100 µM (inactive)	–	> 100 µM (inactive)	> 100 µM (inactive)
CCOC(=O)Cc1cc(=O)oc2cc(O)ccc12	–	> 100 µM (inactive)	> 100 µM (inactive)	> 100 µM (inactive)	–	> 100 µM (inactive)
N/C(=N/O)c1cn(C2OC(CO)C(O)C2O)c2ncnc(NO)c12 (configuration not stated)	0.037 µM (active)	0.0407 µM (active)	0.203 µM (active)	0.426 µM (active)	0.144 µM (active)	0.0962 µM (active)
NCC(=O)NC1(C(=O)O)CCCC1 (H-Gly-[Ac5c]-OH)	> 100 µM (inactive)	> 100 µM (inactive)	> 100 µM (inactive)	> 100 µM (inactive)	> 100 µM (inactive)	> 100 µM (inactive)
CCOC(=O)c1c(-c2ccc(OC)cc2)c(C#N)c(=S)n(C2OC(CO)C(O)C(O)C2O)c1-c1ccccc1 (configuration not stated)	52.2 µM (inactive)	33.2 µM (inactive)	> 100 µM (inactive)	37.4 µM (inactive)	39.4 µM (inactive)	30.8 µM (inactive)
O=C1C(c2ccccc2)=C(c2ccccc2)C1(Cl)Cl	3.18 µM (inactive)	2.02 µM (inactive)	3.2 µM (inactive)	2.47 µM (inactive)	2.61 µM (inactive)	2.43 µM (inactive)
COC(=O)C1(O)C(c2ccccc2)=NC2(C)CCCC21 (configuration not stated)	> 100 µM (inactive)	> 100 µM (inactive)	> 100 µM (inactive)	> 100 µM (inactive)	–	> 100 µM (inactive)
CSC(=N/C=C/c1ccccc1)SC	> 100 µM (inactive)	55.6 µM (inactive)	> 100 µM (inactive)	> 100 µM (inactive)	> 100 µM (inactive)	76.7 µM (inactive)
CCOP(=O)(OCC)C(C)(CC)N/C(=N\C1=NC(C(F)(F)F)(C(F)(F)F)N=C(C(F)(F)F)O1)NC(NC(C)=O)(C(F)(F)F)C(F)(F)F (configuration not stated)	22.7 µM (inactive)	52.5 µM (inactive)	17.9 µM (inactive)	–	21.9 µM (inactive)	32.7 µM (inactive)
O=C1NC(=O)C(c2c[nH]c3cc(Br)ccc23)=C1c1cn(C(c2ccccc2)(c2ccccc2)c2ccccc2)cn1	15.2 µM (inactive)	10.1 µM (inactive)	27.2 µM (inactive)	16 µM (inactive)	10.8 µM (inactive)	6.24 µM (inactive)
CCOC(=O)NNC(=O)NCc1ccccc1CNC(=O)NNC(=O)OCC	> 100 µM (inactive)	> 100 µM (inactive)	> 100 µM (inactive)	> 100 µM (inactive)	> 100 µM (inactive)	> 100 µM (inactive)
CC(N)(Cc1c[nH]c2ccccc12)C(=O)O (configuration not stated)	> 100 µM (inactive)	> 100 µM (inactive)	> 100 µM (inactive)	> 100 µM (inactive)	> 100 µM (inactive)	> 100 µM (inactive)
COC(=O)[C@@H](OC(C)=O)[C@@H](OC(C)=O)c1nnc2ccc(Cl)nn12	> 100 µM (inactive)	> 100 µM (inactive)	> 100 µM (inactive)	> 100 µM (inactive)	> 100 µM (inactive)	> 100 µM (inactive)
O=C1/C(=C/c2cccc(Oc3ccccc3)c2)N=C(c2ccccc2)N1c1nc2ccc(Sc3ccccc3)cc2[nH]1	23.6 µM (inactive)	16 µM (inactive)	20.5 µM (inactive)	14.9 µM (inactive)	27.7 µM (inactive)	15.4 µM (inactive)
CCOC(=O)/C(C(N)=O)=C(O)/C(O)=C(\Br)C(=O)c1ccccc1	23.1 µM (inactive)	17.5 µM (inactive)	25.8 µM (inactive)	18.6 µM (inactive)	17.7 µM (inactive)	16.9 µM (inactive)
COC(CN(C(=O)c1ccccc1)C1CCC2(SCCS2)c2[nH]c3ccccc3c21)OC (configuration not stated)	–	12.9 µM (inactive)	18.1 µM (inactive)	13.7 µM (inactive)	32.1 µM (inactive)	15.6 µM (inactive)

Source: ChEMBL document CHEMBL1201862, “PubChem BioAssay data set” (2004)
